± gives the expanded uncertainty stated by the source.
What was measured:
[1] = surface light scattering
[2] = xn = mol fraction of the nth substance listed; conditions: surface light scattering

CC(C)CC(C)(C)C [2,2,4-trimethylpentane]
[1]
Conditions	surface tension liquid-gas [mN/m]
288.15 K	19.14 ± 0.19
298.15 K	18.3 ± 0.18
303.15 K	17.9 ± 0.18
308.15 K	17.43 ± 0.18
313.15 K	17.09 ± 0.17
318.15 K	16.56 ± 0.17
323.15 K	16.2 ± 0.2

CCO [ethanol]
[1]
Conditions	surface tension liquid-gas [mN/m]
288.15 K	22.72 ± 0.23
293.15 K	22.31 ± 0.23
298.15 K	21.85 ± 0.23
303.15 K	21.41 ± 0.22
308.15 K	21.04 ± 0.22
313.15 K	20.62 ± 0.21
318.15 K	20.29 ± 0.21

CCCCCCCO [heptan-1-ol]
[1]
Conditions	surface tension liquid-gas [mN/m]
298.15 K	26.46 ± 0.3
303.15 K	25.93 ± 0.29
308.15 K	25.43 ± 0.28
313.15 K	24.95 ± 0.28
318.15 K	24.55 ± 0.27
323.15 K	24.03 ± 0.27

CCCCCCC [heptane]
[1]
Conditions	surface tension liquid-gas [mN/m]
293.15 K	20.12 ± 0.23
298.15 K	19.69 ± 0.22
303.15 K	19.13 ± 0.21
308.15 K	18.67 ± 0.21
313.15 K	18.1 ± 0.2
318.15 K	17.7 ± 0.2

CCCCCCC [heptane] + CCO
surface tension liquid-gas [mN/m], [2]
Conditions	x1 = 0.0481	x1 = 0.1018	x1 = 0.1676	x1 = 0.2314	x1 = 0.3171	x1 = 0.4111	x1 = 0.5123	x1 = 0.6417	x1 = 0.7983	x1 = 1
293.15 K	21.78 ± 0.23	21.27 ± 0.22	20.93 ± 0.22	20.74 ± 0.22	20.53 ± 0.22	20.36 ± 0.22	20.25 ± 0.22	20.2 ± 0.22	20.17 ± 0.22	20.12 ± 0.23
298.15 K	21.3 ± 0.22	20.77 ± 0.22	20.41 ± 0.21	20.22 ± 0.21	20.02 ± 0.21	19.85 ± 0.21	19.75 ± 0.21	19.72 ± 0.21	19.71 ± 0.22	19.69 ± 0.22
303.15 K	20.83 ± 0.22	20.27 ± 0.21	19.89 ± 0.21	19.7 ± 0.21	19.48 ± 0.21	19.31 ± 0.21	19.2 ± 0.21	19.16 ± 0.21	19.15 ± 0.21	19.13 ± 0.21
308.15 K	20.43 ± 0.21	19.84 ± 0.21	19.44 ± 0.2	19.24 ± 0.2	19.02 ± 0.2	18.83 ± 0.2	18.72 ± 0.2	18.69 ± 0.2	18.68 ± 0.21	18.67 ± 0.21
313.15 K	20 ± 0.21	19.39 ± 0.2	18.98 ± 0.2	18.76 ± 0.2	18.53 ± 0.2	18.33 ± 0.19	18.2 ± 0.19	18.16 ± 0.2	18.13 ± 0.2	18.1 ± 0.2
318.15 K	19.64 ± 0.2	19.01 ± 0.2	18.58 ± 0.19	18.36 ± 0.19	18.12 ± 0.19	17.91 ± 0.19	17.79 ± 0.19	17.75 ± 0.19	17.73 ± 0.19	17.7 ± 0.2

CCCCCCO [hexan-1-ol]
[1]
Conditions	surface tension liquid-gas [mN/m]
298.15 K	25.56 ± 0.29
303.15 K	24.95 ± 0.28
308.15 K	24.65 ± 0.28
313.15 K	23.93 ± 0.27
318.15 K	23.58 ± 0.26
323.15 K	23.21 ± 0.26

CCCCCCO [hexan-1-ol] + CC(C)CC(C)(C)C
surface tension liquid-gas [mN/m], [2]
Conditions	x2 = 0	x2 = 0.1001	x2 = 0.2	x2 = 0.3001	x2 = 0.4	x2 = 0.5	x2 = 0.6001	x2 = 0.7001	x2 = 0.7997	x2 = 0.8998
298.15 K	25.56 ± 0.29	24.01 ± 0.26	22.65 ± 0.25	21.78 ± 0.23	21.03 ± 0.22	20.33 ± 0.21	19.78 ± 0.2	19.38 ± 0.2	18.95 ± 0.19	18.65 ± 0.19
303.15 K	24.95 ± 0.28	23.31 ± 0.26	22.03 ± 0.24	21.17 ± 0.23	20.44 ± 0.22	19.76 ± 0.21	19.25 ± 0.2	18.88 ± 0.19	18.47 ± 0.19	18.22 ± 0.18
308.15 K	24.65 ± 0.28	22.99 ± 0.25	21.62 ± 0.23	20.74 ± 0.22	19.99 ± 0.21	19.3 ± 0.2	18.77 ± 0.19	18.41 ± 0.19	18 ± 0.18	17.75 ± 0.18
313.15 K	23.93 ± 0.27	22.3 ± 0.25	20.9 ± 0.23	20.05 ± 0.21	19.34 ± 0.2	18.69 ± 0.2	18.21 ± 0.19	17.9 ± 0.18	17.54 ± 0.18	17.37 ± 0.18
318.15 K	23.58 ± 0.26	21.91 ± 0.24	20.45 ± 0.22	19.58 ± 0.21	18.85 ± 0.2	18.17 ± 0.19	17.69 ± 0.18	17.37 ± 0.18	17.01 ± 0.17	16.84 ± 0.17
323.15 K	23.21 ± 0.26	21.43 ± 0.24	19.99 ± 0.22	19.11 ± 0.2	18.38 ± 0.19	17.71 ± 0.19	17.24 ± 0.18	16.94 ± 0.17	16.6 ± 0.17	16.47 ± 0.17

CCCCCO [pentan-1-ol]
[1]
Conditions	surface tension liquid-gas [mN/m]
298.15 K	25.29 ± 0.28
303.15 K	24.87 ± 0.28
308.15 K	24.46 ± 0.27
313.15 K	24.05 ± 0.27
318.15 K	23.65 ± 0.26
323.15 K	23.21 ± 0.26

CCCCCO [pentan-1-ol] + CC(C)CC(C)(C)C
surface tension liquid-gas [mN/m], [2]
Conditions	x2 = 0	x2 = 0.1004	x2 = 0.2003	x2 = 0.3	x2 = 0.4	x2 = 0.5	x2 = 0.5999	x2 = 0.6998	x2 = 0.7999	x2 = 0.8996
298.15 K	25.29 ± 0.28	23.81 ± 0.26	22.53 ± 0.24	21.7 ± 0.23	20.97 ± 0.22	20.3 ± 0.21	19.77 ± 0.2	19.38 ± 0.2	18.94 ± 0.19	18.64 ± 0.19
303.15 K	24.87 ± 0.28	23.28 ± 0.26	22.05 ± 0.24	21.22 ± 0.23	20.49 ± 0.22	19.82 ± 0.21	19.3 ± 0.2	18.93 ± 0.19	18.51 ± 0.19	18.22 ± 0.18
308.15 K	24.46 ± 0.27	22.83 ± 0.25	21.56 ± 0.23	20.71 ± 0.22	19.98 ± 0.21	19.3 ± 0.2	18.79 ± 0.19	18.42 ± 0.19	18.01 ± 0.18	17.75 ± 0.18
313.15 K	24.05 ± 0.27	22.42 ± 0.25	21.08 ± 0.23	20.23 ± 0.22	19.51 ± 0.21	18.84 ± 0.2	18.34 ± 0.19	18 ± 0.18	17.61 ± 0.18	17.38 ± 0.18
318.15 K	23.65 ± 0.26	21.99 ± 0.24	20.58 ± 0.22	19.71 ± 0.21	18.97 ± 0.2	18.3 ± 0.19	17.79 ± 0.18	17.45 ± 0.18	17.07 ± 0.17	16.85 ± 0.17
323.15 K	23.21 ± 0.26	21.5 ± 0.24	20.14 ± 0.22	19.26 ± 0.21	18.51 ± 0.2	17.83 ± 0.19	17.34 ± 0.18	17.02 ± 0.17	16.65 ± 0.17	16.43 ± 0.17

CCCO [propan-1-ol]
[1]
Conditions	surface tension liquid-gas [mN/m]
298.15 K	23.31 ± 0.24
303.15 K	22.9 ± 0.24
308.15 K	22.52 ± 0.23
313.15 K	22.1 ± 0.23
318.15 K	21.68 ± 0.22
323.15 K	21.27 ± 0.22

CCCO [propan-1-ol] + CC(C)CC(C)(C)C
[2], x2 = 0
Conditions	surface tension liquid-gas [mN/m]
298.15 K	23.31 ± 0.24
303.15 K	22.9 ± 0.24
308.15 K	22.52 ± 0.23
313.15 K	22.1 ± 0.23
318.15 K	21.68 ± 0.22
323.15 K	21.27 ± 0.22

From the NIST ThermoML archive (doi:10.1021/acs.jced.5b00903)
